Test results reported in patent US4289786A, “Farnesylacetic acid ester derivatives” (Kuraray Co., Ltd., priority 1978, dated 1981).

Assays:
[1] = tested on: indomethacin-induced ulcers on the gastric mucosa; assay: Indomethacin-induced ulcer (antiulcerogenic activity); format: in vivo, male Donryu rats; details: Rattus norvegicus, 7 h; indomethacin 15 mg/kg s.c.; test compound 300 mg/kg oral, 10 minutes prior; hydrochlorides except one quaternary ammonium salt; read-out: Prevention ratio
Procedure: After fasting for 24 hours, male Donryu rats weighing 210 to 230 grams were administered subcutaneously with indomethacin suspended in 1% aqueous solution of carboxymethylcellulose at a dosage level of 15 mg/kg. Seven hours later, the animals were sacrificed by ether inhalation. The rat stomach was cut open and the indomethacin-induced ulcers appearing on the gastric mucosa were measured for their length in mm. The total length of ulcers per animal was designated as the ulcer index. The farnesylacetic acid ester derivatives (test compounds) prepared by any of the synthetic procedures described above and geranyl farnesylacetate as a control were orally administered 10 minutes prior to the indomethacin administration. The antiulcerogenic activity was evaluated in terms of the prevention ratio, i.e. the quotient of the difference in ulcer index between the test compound group and the control group divided by the ulcer index for the control group. The numbers in the test compound column are those previously assigned to the exemplary compounds of the present invention each represented by a structural formula, and the example numbers are the numbers of examples wherein preparation of the corresponding compounds is described. The test compounds were all hydrochlorides except for one quaternary ammonium salt.

rats = details: cited from earlier work
mice = details: cited from earlier work
[2] = tested on: stress ulcer on the gastric gland; assay: Stress ulcer (water immersion restraint); format: in vivo, male Donryu rats; details: 300 mg/kg oral, 10 minutes before immersion; 23° C. water, seven hours; hydrochlorides
Procedure: Male Donryu rats weighing 240-260 grams were immobilized in wire cages (cf. Japanese Journal of Pharmacology, 18, 9-18 (1968)) and placed under stress by immersing them in water at 23° C. to the level of the breast. Seven hours later, the animals were taken up from the water tank and immediately sacrificed by blowing and the stomach was excised. The stomach was inflated with 1% formalin and then cut open and the ulcer on the gastric gland were measured for length in mm. The total ulcer length per animal was designated as the ulcer index. In the above-mentioned test, the compounds (hydrochlorides) (test compounds (1) and (4)) prepared by the procedure of Examples 1 and 2, respectively and geranyl farnesylacetate were administered orally to the rats 10 minutes before the immersion. In the Table, the prevention ratio has the same meaning as defined for the indomethacin-induced ulcer in Example 16.

ulcers = details: known compounds, prior art; cited from earlier work
ddY mice = assay: Acute toxicity--2 (oral, mice); format: in vivo; details: mice
Procedure: (§1) Five-week-old ddY mice were fed previously for one week and then subjected to the test. All the test compounds were administered orally and the observation period was one week. The test compounds (23), (7) and (13) used were the products of the above Example 5, 10 and 4, respectively and were all in the form of hydrochlorides (the product of Example 10 was converted into the hydrochloride by a conventional method).

[3] = Acute toxicity--2 (oral, mice); format: in vivo; details: mouse, in vivo, ddY mice, observation one week, hydrochlorides
Procedure: as §1

Wistar rats = assay: Acute toxicity--1 (oral, rats); format: in vivo; details: rats
Procedure: (§2) Wistar rats, five weeks of age, were fed previously for one week and then subjected to the test. All the test compounds were administered orally. The observation period was 2 weeks. The test compounds (4), (1) and (16) used were the products prepared in the above Examples 2, 1 and 8, respectively, and were all in the form of hydrochlorides.

[4] = Acute toxicity--1 (oral, rats); format: in vivo; details: rat, in vivo, Wistar rats, observation 2 weeks, hydrochlorides
Procedure: as §2

[5] = Aqueous solution of hydrochloride; format: physicochemical; details: in water
Procedure: Using the lower alkyl esters of farnesylacetic acids shown in Table 1 and the amino alcohols also shown in Table 1, ester exchange reaction was carried out by the procedure of Example 1, to prepare a variety of amine-nitrogen-containing farnesylacetic acid esters and hydrochlorides thereof. In the chemical formula appearing in the table, P stands for a prenyl group, G a geranyl group and F a farnesyl group.

In the case of `CC(C)=CCCC(C)=CCCC(C)=CCCC(=O)OCC1CCCCN1C` (stereo not shown) [(26)], the inhibition in vivo at 300 mg/kg [1] is reported as 47.9%.
For `CC(C)=CCCC(C)=CCCC(C)=CCCC(=O)OCC=C(C)CCC=C(C)C` [Geranyl farnesylacetate, 3,7-dimethyl-2,6-octadienyl 5,9,13-trimethyl-4,8,12-tetradecatrienoate], the inhibition in vivo at 300 mg/kg [1] is given as 6.1%, the LD50 (rats) is given as “more than 8 g/kg” and the LD50 (mice) is given as “more than 8 g/kg”. The Prevention ratio [2] was 32.0% and the “antiulcer / antiulcerogenic activity (in words)” value (ulcers) was “high antiulcerogenic activity”.
For `CC(C)=CCCC(C)=CCCC(C)=CCCC(=O)OC(C)(C)CN(C)C` [(7), 1,1-dimethyl-2-dimethylaminoethyl farnesylacetate], the inhibition in vivo at 300 mg/kg [1] was 91.7%, the “Number of dead animals/number of animals used” value (ddY mice; dose 6 g/kg) was 0/4 and the “Number of dead animals/number of animals used” value (ddY mice; dose 8 g/kg) was 1/3. For the same molecule, the “Number of dead animals/number of animals used” value (ddY mice; dose 10 g/kg) was 3/3 and the LD50 at 168 h [3] was 8400 mg/kg.
For `CC(C)=CCCC(C)=CCCC(C)=CCC(Cc1ccccc1)C(=O)OCCN(C)C` (stereo not shown) [(16)], the inhibition in vivo at 300 mg/kg [1] was 84.5%, the “Number of dead animals/number of animals used” value (Wistar rats; dose 5 g/kg) was 0/5 and the “Number of dead animals/number of animals used” value (Wistar rats; dose 10 g/kg) was 1/5. For the same molecule, the “Number of dead animals/number of animals used” value (Wistar rats; dose 15 g/kg) was 1/5 and the LD50 at 336 h [4] was over 15000 mg/kg.
In the case of `CCN(CCOC(=O)CCC=C(C)CCC=C(C)CCC=C(C)C)c1ccccc1` [(14)], the inhibition in vivo at 300 mg/kg [1] is reported as 70.2% and the “Appearance of aqueous solution of hydrochloride (water solubility)” value [5] is reported as “Insoluble”.
With `CC(C)=CCCC(C)=CCCC(C)=CCCC(=O)OCCN(CC=C(C)CCC=C(C)C)CC=C(C)CCC=C(C)C` [(13)] the inhibition in vivo at 300 mg/kg [1] was 81.3%, the “Appearance of aqueous solution of hydrochloride (water solubility)” value [5] was “Insoluble” and the “Number of dead animals/number of animals used” value (ddY mice; dose 1 g/kg) was 0/3. For the same molecule, the “Number of dead animals/number of animals used” value (ddY mice; dose 2 g/kg) was 1/3, the “Number of dead animals/number of animals used” value (ddY mice; dose 6 g/kg) was 2/3 and the “Number of dead animals/number of animals used” value (ddY mice; dose 10 g/kg) was 2/3. For the same molecule, the “Number of dead animals/number of animals used” value (ddY mice; dose 20 g/kg) was 3/3 and the LD50 at 168 h [3] was 7000 mg/kg.
Work on `CC[N+](CC)(CC)CCOC(=O)CCC=C(C)CCC=C(C)CCC=C(C)C` [(2), farnesylacetoxyethyltriethylammonium bromide] yielded an inhibition in vivo at 300 mg/kg [1] of 68.8%.
For `CCN1CCC(OC(=O)CCC=C(C)CCC=C(C)CCC=C(C)C)CC1` [(24), N-ethyl-4-farnesylacetoxy-piperidine], the inhibition in vivo at 300 mg/kg [1] was 76.6%.
With `CCN(CC)CCOC(=O)CCC=C(C)CCC=C(C)CCC=C(C)C` [(1), 2-diethylaminoethyl farnesylacetate] the inhibition in vivo at 300 mg/kg [1] was 64.1%, the Prevention ratio [2] was 42.1% and the “Number of dead animals/number of animals used” value (Wistar rats; dose 4.1 g/kg) was 0/5. For the same molecule, the “Number of dead animals/number of animals used” value (Wistar rats; dose 5.4 g/kg) was 0/5 and the LD50 at 336 h [4] was over 5400 mg/kg.
In the case of `CC(C)=CCCC(C)=CCCC(C)=CCCC(=O)OCCN1CCN(CCO)CC1` [(23)], the inhibition in vivo at 300 mg/kg [1] is reported as 93.2%, the “Number of dead animals/number of animals used” value (ddY mice; dose 1.3 g/kg) is reported as 0/3 and the “Number of dead animals/number of animals used” value (ddY mice; dose 4.0 g/kg) is reported as 2/4. For the same molecule, the “Number of dead animals/number of animals used” value (ddY mice; dose 6.6 g/kg) was 3/3 and the LD50 at 168 h [3] was 4000 mg/kg.
For `CC(C)=CCCC(C)=CCCC(C)=CCCC(=O)OCCCN(C)C` [(4), 3-Dimethylaminopropyl farnesylacetate], the inhibition in vivo at 300 mg/kg [1] was 65.8%, the Prevention ratio [2] was 40.1% and the “Number of dead animals/number of animals used” value (Wistar rats; dose 3 g/kg) was 0/5. For the same molecule, the “Number of dead animals/number of animals used” value (Wistar rats; dose 4 g/kg) was 0/5 and the LD50 at 336 h [4] was over 4000 mg/kg.
